The values that follow come from paper PMC8597116 (Clinical Pharmacology in Drug Development, 2021).

A short description of series [1]: Steady-state plasma pharmacokinetics of paroxetine, healthy adults. It counts as in vivo, human.
The nature of series [2]: Safety monitoring: treatment-related adverse events in healthy adults. The format is in vivo, human. Particulars: n = 22 per treatment period.
The conditions of series [3]: for MPR AUC0‐t (metabolite‐to‐parent ratio) / MPR AUCinf (metabolite‐to‐parent ratio) / MPR Cmax (metabolite‐to‐parent, 5‐HVLX‐gluc to viloxazine, ratio): adjusted for molecular weights; for AUC0‐t, geometric mean / AUCinf, geometric mean / Cmax, geometric mean: geometric least‐squares mean of log‐transformed values.
The nature of the next series: clinical. Particulars: human, plasma, oral.
The next series relates to CYP1A2. Particulars: cited from earlier work.
Another series deals with CYP2B6. Particulars: read-out: CYP2B6 IC50; cited from earlier work.
In series [4] the test system is CYP2D6. The conditions noted are these: read-out: CYP2D6 IC50; cited from earlier work.
A further series relates to CYP3A4/5. Particulars: read-out: CYP3A4/5 IC50; two values given; cited from earlier work.
Another series deals with CYP2C8. Particulars: read-out: CYP2C8 IC50; cited from earlier work.
The test system of a further series is CYP2C9. Particulars: read-out: CYP2C9 IC50; cited from earlier work.
Another series has as its system CYP2C19. Particulars: read-out: CYP2C19 IC50; cited from earlier work.
Series [5] relates to CYP2D6. The conditions noted are these: cited from earlier work.
[6] abbreviates: day 13, paroxetine 20 mg once daily, mean ± SD.
Where [7] appears, read: Combination (period 3), mean ± SD.
The mark [8] stands for this setting: SPN‐812 alone (period 1), 700 mg single dose, plasma, mean ± SD.
Where [9] appears, read: SPN‐812 alone (period 1), mean ± SD.
The mark [10] stands for this setting: combination versus SPN‐812 alone.
Setting [11] is: geometric LS mean ratio, period 3/period 1.
Setting [12] is: paroxetine 20 mg QD coadministration.

“And” between values parts separate entries of the source, which are not always exact repeats. Equal entries are not always repeated. Where two headings read alike, the source gives them in different places.

Take `Fc1ccc([C@@H]2CCNC[C@H]2COc2ccc3c(c2)OCO3)cc1` [Paroxetine, paroxetine]: in [1] (setting [6]), the Cavg is on record as 29.6 ± 15.7 ng/mL and the “Cmin,ss” value is on record as 22.3 ± 13.4 ng/mL. Also, in series [1] (human, plasma, oral, 20 mg), the AUC was 709 ± 377 ng·h/mL, the Cmax was found to be 39 ± 19 ng/mL and the Tmax was 6 h. In addition, in [2], the “Abnormal dreams (treatment‐related)” value is recorded as 0 n (%), the “Any adverse event (treatment‐related)” value is given as 3 (13.6%) n (%), the “Decreased appetite (treatment‐related)” value is reported as 0 n (%) and the “Diarrhea (treatment‐related)” value is 3 (13.6%) n (%). For the same compound, in [2], the “Dysgeusia (treatment‐related)” value is reported as 0 n (%), the “Palpitations (treatment‐related)” value was 0 n (%) and the “Somnolence (treatment‐related)” value is 0 n (%).
For the compound `CCOc1ccc(O[C@@H]2O[C@H](C(=O)O)[C@@H](O)[C@H](O)[C@H]2O)cc1OCC1CNCCO1` (stereo partly drawn) [5‐HVLX‐gluc, 5‐hydroxyviloxazine glucuronide], in series [3] (setting [7]), the “MPR AUC0‐t (metabolite‐to‐parent ratio)” value was 0.31 ± 0.08 (25.2%); the “MPR AUCinf (metabolite‐to‐parent ratio)” value is 0.31 ± 0.08 (25.1%); the “MPR Cmax (metabolite‐to‐parent, 5‐HVLX‐gluc to viloxazine, ratio)” value is recorded as 0.33 ± 0.06 (19.2%). In series [3] (Combination (period 3)), the “AUC0‐t, geometric mean” value was 60.1; the “AUCinf, geometric mean” value came out at 60.3; the “Cmax, geometric mean” value amounted to 2.8. Also, in [3] (setting [8]), the “AUC0‐t” value is 70.5 ± 19.6 (27.8%) μg·h/mL, the AUCinf is given as 70.7 ± 19.7 (27.9%) μg·h/mL, the Cmax is recorded as 3.5 ± 0.8 (24.2%) μg/mL and the t1/2 was 5.7 ± 1.7 (29.6%) h. For the same compound, in [3] (setting [9]), the “MPR AUC0‐t (metabolite‐to‐parent ratio)” value was 0.49 ± 0.15 (31.1%); the “MPR AUCinf (metabolite‐to‐parent ratio)” value is 0.48 ± 0.15 (31.5%); the “MPR Cmax (metabolite‐to‐parent, 5‐HVLX‐gluc to viloxazine, ratio)” value is reported as 0.47 ± 0.12 (27.4%). Also, in series [3] (SPN‐812 alone (period 1)), the “AUC0‐t, geometric mean” value was determined as 67.8; the “AUCinf, geometric mean” value is given as 67.9; the “Cmax, geometric mean” value is 3.4. Further, the “delay of median Tmax after the combination compared with SPN‐812 alone” value in series [3] (setting [10]) is “≈ 3 hour”. Also, in series [3] (setting [11]), the “AUC0‐t ratio, combination/SPN‐812 alone (relative bioavailability)” value was 88.75% and 88.8%; the “AUCinf ratio, combination/SPN‐812 alone (relative bioavailability)” value is 88.77% and 88.8%; the “Cmax ratio, combination/SPN‐812 alone (relative bioavailability)” value is 83.05% and 83.1%. Besides, in series [3] (setting [12]), the “decrease in AUC0‐t after the combination versus SPN‐812 alone” value was determined as 12%, the “decrease in AUCinf after the combination versus SPN‐812 alone” value came out at 12% and the “decrease in Cmax after the combination versus SPN‐812 alone” value was found to be 17%.
With `CCOc1ccccc1OCC1CNCCO1` (stereo not drawn) [Viloxazine, viloxazine], in series [3] (setting [10]), the “change (increase) in AUC / exposure with CYP2D6 inhibition by paroxetine” value is on record as < 35%. Also, the “delay of median Tmax after the combination compared with SPN‐812 alone” value in series [3] (setting [10]) was “≈ 1 hour”. In addition, the “increase in AUC0‐t after the combination versus SPN‐812 alone” value in series [3] (setting [12]) was “under 35%”. Also, the “increase in AUCinf after the combination versus SPN‐812 alone” value in [3] (setting [12]) is “under 35%”. In series [3] (setting [12]), the “increase in Cmax after the combination versus SPN‐812 alone” value is on record as 16%. In “clinical” (700 mg), this compound gave a half-life of 5.2 ± 2.3 h. For the same compound, the AUC in the series “clinical” (AUC0‐t, Combination (period 3): SPN‐812 700 mg + paroxetine 20 mg QD, mean ± SD) is 112000 ± 23900 ng·h/mL. For the same compound, the IC50 in the series on CYP1A2 (read-out: CYP1A2 reversible inhibition IC50, reversible inhibition) is 0.269 µM; in the series on CYP1A2 (read-out: CYP1A2 time‐dependent inhibition IC50, after 30 minute preincubation with nicotinamide adenine dinucleotide phosphate), 0.0436 µM; with CYP2B6 it was 184 µM; in the series on CYP2D6 [4], 141 µM; with CYP3A4/5, 221 µM and 352 µM; with CYP2C8, > 1010 µM. Further, the IC50 with CYP2C9 and with CYP2C19 was > 1010 µM each time. Besides, the “share of CYP2D6 in the formation of 5‐hydroxyviloxazine” value in the series with CYP2D6 [5] was < 50%.
